Where two headings read alike, the source gives them in different places.
Key:
[1] = test system: human GADD45α gene promoter and regulatory element linked to Gaussia luciferase (GD532-GLuc) in TK6 cells; test: GLuc genotoxicity assay: GLuc-T01 cells (TK6 with pEP-GD532-GLuc), 48 hour endpoint, without S9
Description: The assay has the following steps, as further described below: (1) preparing a microplate for use in an assay; (2) conducting the assay in the microplates; (3) collecting and analysing the data; and (4) making a judgment on genome damage and the consequences.
The assay is performed using a microplate reader capable of luminescence and absorbance readings, equipped with injectors capable of single well additions.
Using the standard dilution protocol described here, all concentrations are halved in the microplate well when a sample volume of 75 μl is combined with 75 μl of cell culture. All standard and test chemicals and reagents should be prepared fresh shortly before the assay is performed.
An initial concentration of 2 mM or 1 mg/ml (whichever is lowest) is recommended (equating to 1 mM or 500 μg/ml of test compound on the microplate). It is desirable that the test compound is fully soluble at the top concentration tested. A minimum of 250 μl of each test compound is required per plate. […] If the compound precipitates from solution when the DMSO standard is added to water, the original DMSO stock standard can be diluted further with 100% DMSO. The 20 μl+980 μl water dilution step is then repeated to produce a fresh test standard.
Standard cell culture methods are used to prepare GLuc-TO1 cells for use in the assay. […] Cells are grown in routine culture medium:
The following standard protocol may be followed. […] To achieve this, 150 microlitres of the test chemical solution are put into a microplate well. […] This produces 9 serial dilutions of 75 microlitres each.
75 μl of GLuc-T01 cells in Assay Medium (GS-HC-AM) as described above are then added to each well as appropriate.
The following controls are included in the microplate: • a. Blank well. • b. Test compound/sample alone. • c. Assay medium alone. • d. Control compound with cells.
Once finished, the microplates are covered with a breathable membrane. […] Plates should be incubated and analysed after 48 hours +/−2 hours.
Plates are first read for absorbance in each well, at a wavelength of ˜620 nm. […] An example of a suitable reader and injector system is a Tecan Infinite F500
Following the 48 hour incubation, luminescence and absorbance data are collected from the microplates. A microplate reader combining luminescence and absorbance functionality is used; by way of example, this reader may be a Tecan Infinite F500 (Tecan UK Ltd.). Luminescence data are collected with an integration time of 3 seconds after injection of the substrate and shaking of the microplate (within the reader). Optical absorbance is measured through a 600 nm or 620 nm filter. These luminescence and absorbance data are transported into a Microsoft Excel spreadsheet, and converted to graphical data. […] Luminescence data are divided by absorbance data to give ‘brightness units’, the measure of average GLuc induction per cell. […] In this way, one can distinguish between a small number of highly luminescent cells and a large number of weakly luminescent cells. The decision (see below), on whether or not a compound is classified as being genotoxic is generated automatically within the software.
The cytotoxicity threshold is set at 80% of the cell density reached by the untreated control cells.
Anomalous brightness data is generated when the toxicity leads to a final cell density less than 30% that of the blank. Genotoxicity data is not calculated above this toxicity threshold.
A series of genotoxicity assays were performed using a TK6 cell line having the GD532-GLuc expression cassette (a “GLuc assay”). The assays were performed using the experimental protocol provided in a later example.

[2] = test system: GADD45α-FLuc expression cassette (GD532-L) in TK6 cells; test: FLuc genotoxicity assay: TK6 cells with GADD45α-FLuc (GD532-L) expression cassette; conditions: for detection as genotoxic with FLuc at the 48 hour endpoint: FLuc measured 8-48 hours after treatment, FIG. 4
Description: The reagents for the FLuc assay were originally taken from the article Wettey F R, Jackson A P. Luciferase Reporter Assay. In: Reviews and Protocols in DT40 Research. […] The reagents and their concentrations are listed below. The pH of both mixes is adjusted to pH 7.8 in order to maximise the light output from luciferase.
It was decided to directly lyse the TK6 cells in the GreenScreen HC assay medium as to pellet and wash the cells would add additional steps to the protocol and therefore increase variability into the data. […] The solution of this combined lysis and assay mix (L&A buffer) is shown below.
The final concentration listed above is the concentration of the reagents after the L&A buffer has been combined with the GreenScreen HC assay media. The final concentration of the reagents is fixed and based on the information from the Wettey and Jackson protocol. The FLuc assay as it is currently performed relies on the addition of 40 μl of L&A buffer to 120 μl of GreenScreen HC assay buffer. Therefore, the initial concentration of the reagents in the L&A buffer has to be four times greater than the desired final concentration. The L&A buffer should be pH 8.0 as when the L&A buffer is combined with the GreenScreen HC assay medium (pH 7.2) this give a final pH of ˜7.8.
The preparation of pEP-GD532-GLuc is described in the accompanying examples. Using a similar strategy the inventors also prepared plasmid pEP-GD532-L, in which FLuc is used as the reporter protein. TK6 cells are transfected with a plasmid having a GD532-L or GD532-GLuc expression cassette by electroporation and clones bearing the reporter plasmids are selected.
The inventors wished to determine which of the GLuc and FLuc reporter proteins were most suitable for use in a genotoxicity assay. To determine this, they performed a series of experiments in which cells having the GD532-L or GD532-GLuc expression cassette were exposed to a test compound, and the activity of GLuc and FLuc measured and compared to the standard GADD45α-GFP expression cassette.
FLuc cells were combined with a several known genotoxins and non-genotoxins. FLuc expression was measured at 8, 16, 24, 32, 40 and 48 hours after treatment.

[3] = test system: GD532-GLuc reporter in GLuc-T01 cells with S9 liver extract; test: S9 metabolic activation GLuc assay with thiazole orange cell number estimation; conditions: TO cell number estimation, threshold 1.5, FIG. 7B
Description: In an S9-incorporating assay, GLuc-T01 cells are exposed to the test compound in the presence of the S9 extract in a mixture with enzyme co-factors (for example, glucose-6-phosphate (2.5 mM) and β-nicotinamide adenine dinucleotide phosphate (0.5 mM)). The S9 extract is normally used at a final concentration of 1% (v/v) in the assay microplate. […] The conditions of an S9-incorporating assay (for example, time of exposure and type of S9—animal species, chemical induction of hepatic enzymes etc.) may be varied according to experimental requirements.
The cell stain used in the adapted protocol is thiazole orange (TO) which is a cyanine dye that binds to nucleic acids. The binding of TO to DNA and RNA greatly enhances its fluorescence intensity, allowing for its detection without the need to wash away background, unbound TO.
The method requires GLuc-T01 cells to be lysed to allow access to the DNA of all cells present in the microplate well.
In the microplate, the final concentration of TO is 15 μM and for Triton-X100 it is 1% (v/v).
Where the assay includes S9 liver extracts, the genotoxic threshold is set at a relative GLuc induction of 1.5 (i.e. an 50% increase).

[4] = test system: GADD45α-GFP expression cassette in TK6 cells; test: GADD45α-GFP reporter assay (GreenScreen HC); type: cell-based, human; conditions: FIG. 3, 24 hour timeframe
Description: Studying FIG. 3 allows for the construction of a number of hypotheses regarding the stability of the reporter proteins and how this will affect the GreenScreen HC assay. The FLuc protein has been reported to have a half-life within cells of ˜3 hours. In comparison, GFP has been reported to have a half-life within cells of ˜26 hours. In this respect GFP can be considered to give more of a cumulative measure of GADD45α induction whilst FLuc will report only on recent GADD45 induction.

[5] = TK6 with GD532-GLuc, 48 hour endpoint
[6] = lowest test compound concentration that produces a relative GLuc induction greater than the 1.8 threshold

Row | Compound | GLuc Genotox Result [1] | GLuc Genotox LEC ([1]; human, 48 h) [µg/mL] | further results
1 | Nc1ncn([C@@H]2O[C@H](CO)[C@@H](O)[C@H]2O)c(=O)n1 [5-Azacytidine] | +++ | 0.38 | –
2 | O=c1[nH]cc(F)c(=O)[nH]1 [5-Fluorouracul] | – | – | genotoxicity outcome in the GLuc assay (in words) [1, 5]: correctly identified; GLuc Genotox LEC [1, 6]: 0.63 µg/mL; detection as genotoxic with FLuc at the 48 hour endpoint [2]: would not have been detected as genotoxic
3 | Nc1cc2c3ccccc3ccc2c2ccccc12 [6-Aminochrysene] | – | – | detection of pro-genotoxin in S9 GLuc assay [3]: detected
4 | C[C@@]1(CO)[C@H](O)CC[C@@]2(C)[C@H]1CC[C@H]1C[C@@H]3C[C@@]12CC[C@]3(O)CO [Aphidicolin] | – | – | GLuc Genotox LEC [1, 6]: 0.13 µg/mL
5 | CCCCNC(=O)n1c(NC(=O)OC)nc2ccccc21 [Benomyl] | +++ | 1.81 | –
6 | CC[C@@]1(O)C(=O)OCc2c1cc1n(c2=O)Cc2cc3ccccc3nc2-1 [Camptothecin] | – | – | GLuc Genotox LEC [1, 6]: 0.08 µg/mL
7 | COc1cc2c(c(OC)c1OC)-c1ccc(OC)c(=O)cc1[C@@H](NC(C)=O)CC2 [Colchicine] | – | – | genotoxicity outcome in the GLuc assay (in words) [1, 5]: correctly identified; detection as genotoxic with FLuc at the 48 hour endpoint [2]: would not have been detected as genotoxic
8 | COc1cc([C@@H]2c3cc4c(cc3[C@@H](O[C@@H]3O[C@@H]5CO[C@@H](C)O[C@H]5[C@H](O)[C@H]3O)[C@H]3COC(=O)[C@H]23)OCO4)cc(OC)c1O [Etoposide] | +++ | – | genotoxicity outcome in the GLuc assay (in words) [1]: positive
9 | COC1=CC(=O)C[C@@H](C)[C@]12Oc1c(Cl)c(OC)cc(OC)c1C2=O [Griseofulvin] | +++ | – | –
10 | OO [Hydrogen Peroxide] | +++ | 5.00 | –
11 | NC(=O)NO [Hydroxyurea] | – | 4.75 | –
12 | COS(C)(=O)=O [Methyl methanesulfonate] | +++ | 6.25 | –
13 | CN(N=O)C(N)=O [N-Nitroso-N-methylurea] | – | – | GLuc Genotox LEC [1, 6]: 8.05 µg/mL; test concentration at which the highest relative induction is seen ([2]; FLuc reporter, FIG. 3, 24 hour timeframe): 32 µg/mL; concentrations that cause significant cell death ([2]; TK6 reporter cells, FIG. 3, explains decrease in FLuc signal): greater than 32 μg/ml; concentration at which GADD45α induction (GFP signal) peaks [4]: at least 258 μg/ml
14 | CC(=O)O[C@H]1C(=O)[C@@]2(C)[C@H]([C@H](OC(=O)c3ccccc3)[C@]3(O)C[C@H](OC(=O)[C@H](O)[C@@H](NC(=O)c4ccccc4)c4ccccc4)C(C)=C1C3(C)C)[C@]1(OC(C)=O)CO[C@@H]1C[C@@H]2O [Paclitaxel (Taxol), Paclitaxel] | +++ | 0.03 | –
15 | CCc1nc(N)nc(N)c1-c1ccc(Cl)cc1 [Pyrimethamine] | +++ | 0.39 | –
16 | CC[C@]1(O)C[C@H]2CN(CCc3c([nH]c4ccccc34)[C@@](C(=O)OC)(c3cc4c(cc3OC)N(C=O)[C@H]3[C@@](O)(C(=O)OC)[C@H](OC(C)=O)[C@]5(CC)C=CCN6CC[C@]43[C@@H]65)C2)C1 [Vincristine Sulphate] | +++ | 0.0008 | –
17 | OCCO [ethylene glycol] | – | – | genotoxicity outcome in the GLuc assay (in words) [1, 5]: correctly identified
